# Test results reported in patent publication US6410533B1, “Antibacterial compounds” (Genzyme Corporation, priority 2000, dated 2002).
# Like-named read-outs stand apart in the source and are kept apart here.
# How the values were obtained:
# [1] = system: Staphylococcus aureus bacteria (ATCC 9604 SV); test: Minimal inhibitory concentration (MIC), broth microdilution; type: cell-based; settings: 24 h at 37° C.
# Procedure, shortened: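 MIC: broth microdilution per NCCLS in Mueller-Hinton broth; overnight culture adjusted to 0.05 McFarland and diluted twenty-fold into compound-containing broth. IC50: inoculum at 0.1 McFarland diluted two-fold into TB broth with compound, 3–5 h at 37° C. Turbidity at 550 nm; IC50 is the concentration giving 50% growth inhibition.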
# [2] = system: Staphylococcus aureus bacteria (ATCC 9604 SV); test: IC50 determination, growth inhibition by turbidity at 550 nm; type: cell-based; settings: Staphylococcus aureus ATCC 9604 SV, turbidity at 550 nm after 3-5 h at 37° C.
# Procedure: Minimal inhibitory concentrations (MICs) for Staphylococcus aureus bacteria (ATCC 9604 SV) were determined by broth microdilution methodology following National Committee for Clinical Laboratory Standards. In the MIC determinations, the compounds were incorporated into Mueller-Hinton broth (Becton Dickinson Microbiology systems, Cockeyville, Md.) at a series of concentrations. After the test organism was grown overnight in TB broth, the broths were adjusted to the turbidity equivalent to 0.05 McFarland standard. The suspensions were diluted twenty-fold into the broth containing the compounds. […] In the IC50 determination, the method was modified to allow the rapid growth of the organisms. The inoculum suspensions were adjusted to 0.1 McFarland standard and then diluted two-fold into the wells containing TB broth and the compounds. After three to five hours incubation at 37° C., the turbidity was measured at 550 nm and inhibitory activity was defined as the concentration of antimicrobial agent that inhibits 50% growth of the organism in the microdilution wells.
# [3] = system: methicillin-resistant Staphylococcus aureus (ATCC 33591); test: In vivo mouse intraperitoneal infection, mortality and % survivors over 7 days; settings: MRSA ATCC 33591 i.p., ICR mice; for In Vivo, double dose (% of mice rescued): 1 and 5 h post inoculation; for In Vivo, single dose (% of mice rescued): single dose 1 h post inoculation
# Procedure, shortened: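 Male ICR mice (20 g, 10 per group) were infected i.p. with 2-3×10^7 CFU/mouse (LD90-100) of MRSA ATCC 33591 in broth with 5% mucin. Compound in 1% cremophore EL/saline was given s.c. at 1 h, or at 1 and 5 h, post-infection. Mortality and % survivors were recorded over 7 days.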
# [4] = Staphylococcus aureus ATCC 9604 SV
# [5] = ATCC9604, Staphylococcus aureus ATCC 9604 SV, read-out: MIC
SMILES,"MIC [1, 4] [µg/mL]",IC50 [2] [nM],"In Vivo, double dose (% of mice rescued) ([3]; 2 × 2 mg/kg s.c.) [% @ 2 × 2 mg/kg]","In Vivo, double dose (% of mice rescued) ([3]; 2 × 20 mg/kg s.c.) [% @ 2 × 20 mg/kg]","MIC [1, 5] [µg/mL]",IC50 ([2]; ATCC9604) [nM],"In Vivo, single dose (% of mice rescued) ([3]; 2 mg/kg s.c.) [% @ 2 mg/kg]","In Vivo, single dose (% of mice rescued) ([3]; 20 mg/kg s.c.) [% @ 20 mg/kg]","In Vivo, single dose (% of mice rescued) ([3]; 40 mg/kg s.c.) [% @ 40 mg/kg]","In Vivo, single dose (% of mice rescued) ([3]; 80 mg/kg s.c.) [% @ 80 mg/kg]","In Vivo, single dose (% of mice rescued) ([3]; 160 mg/kg s.c.) [% @ 160 mg/kg]"
CCOC(=O)c1cc(NC(=O)Nc2cc(C(F)(F)F)cc(C(F)(F)F)c2)n(-c2ccc(Br)cc2)n1 [Compound 98],>14.1,3100,0,33,,,,,,,
"O=C(Nc1cc(C(F)(F)F)cc(C(F)(F)F)c1)Nc1cc(CO)nn1-c1ccc(Br)cc1 [Compound 99, 1-(3,5-Bis-trifluoromethyl-phenyl)-3-[2-(4-bromo-phenyl)-5-hydroxymethyl-2H-pyrazol-3-yl]-urea]",,,33,33,6.54,4240,,,,,
CC(C)(C)c1cc(NC(=O)Nc2cc(Cl)cc(Cl)c2)n(-c2ccc(Br)cc2)n1 [Compound 100],<0.723,132,,,,,0,0,,,
CC(C)(C)c1cc(NC(=O)Nc2cc(C(F)(F)F)cc(C(F)(F)F)c2)n(-c2ccc(Br)cc2)n1 [Compound 101],<0.824,143,,,,,0,0,,,
COCCN(CCOC)Cc1cc(NC(=O)Nc2cc(Cl)cc(Cl)c2)n(-c2ccc(Br)cc2)n1 [Compound 102],28.6,3520,,,,,0,25,,,
COCCN(CCOC)Cc1cc(NC(=O)Nc2cc(C(F)(F)F)cc(C(F)(F)F)c2)n(-c2ccc(Br)cc2)n1 [Compound 103],16.0,1560,0,33,,,25,25,,,
O=C(Nc1cc(C(F)(F)F)cc(C(F)(F)F)c1)Nc1cc(CN(CCO)CCO)nn1-c1ccc(Br)cc1 [Compound 104],15.3,6800,17,17,,,,,,,
O=C(Nc1cc(Cl)cc(Cl)c1)Nc1cc(-c2ccccc2)nn1-c1ccc(Br)cc1 [Compound 107],6.28,121,0,17,,,25,12.5,10,10,5
O=C(Nc1cc(Cl)cc(Cl)c1)Nc1cc(-c2cccs2)nn1-c1ccc(Br)cc1 [Compound 108],>25.4,194,,,,,0,0,,,
O=C(Nc1cc(C(F)(F)F)cc(C(F)(F)F)c1)Nc1cc(-c2cccs2)nn1-c1ccc(Br)cc1 [Compound 109],<0.863,155,,,,,25,25,,,
O=C(Nc1cc(Cl)cc(Cl)c1)Nc1cc(-c2ccsc2)nn1-c1ccc(Br)cc1 [Compound 110],25.4,164,,,,,0,0,,,
O=C(Nc1cc(C(F)(F)F)cc(C(F)(F)F)c1)Nc1cc(-c2ccsc2)nn1-c1ccc(Br)cc1 [Compound 111],<0.863,126,,,,,0,0,,,
O=C(Nc1cc(Cl)cc(Cl)c1)Nc1cc(-c2ccco2)nn1-c1ccc(Br)cc1 [Compound 112],6.15,232,,,,,0,0,,,
O=C(Nc1cc(C(F)(F)F)cc(C(F)(F)F)c1)Nc1cc(-c2ccco2)nn1-c1ccc(Br)cc1 [Compound 113],<0.839,152,,,,,25,0,,,
O=C(Nc1cc(Cl)cc(Cl)c1)Nc1cc(-c2cccnc2)nn1-c1ccc(Br)cc1 [Compound 116],3.02,391,,,,,0,0,,,
"O=C(Nc1cc(C(F)(F)F)cc(C(F)(F)F)c1)Nc1cc(-c2cccnc2)nn1-c1ccc(Br)cc1 [Compound 117, 1-(3,5-Bis-trifluoromethyl-phenyl)-3-[2-(4-bromo-phenyl)-5-pyridin-3-yl-2H-pyrazol-3-yl]-urea]",,,,,3.42,238,25,0,,,
O=C(Nc1cc(Cl)cc(Cl)c1)Nc1cc(-c2ccccc2)nn1CC(F)(F)F [Compound 120],>21.5,291,,,,,0,0,,,
O=C(Nc1cc(C(F)(F)F)cc(C(F)(F)F)c1)Nc1cc(-c2ccccc2)nn1CC(F)(F)F [Compound 121],<1.49,84,,,,,0,0,,,
O=C(Nc1cc(C(F)(F)F)cc(C(F)(F)F)c1)Nc1nc(-c2ccc(F)c(F)c2)cs1 [Compound 151],1.40,132,,,,,0,0,,,
Cc1cc(-c2csc(NC(=O)Nc3cc(C(F)(F)F)cc(C(F)(F)F)c3)n2)ccc1F [Compound 152],1.39,171,,,,,0,0,,,
O=C(Nc1ccc(F)c(C(F)(F)F)c1)Nc1nc(-c2ccc(F)c(F)c2)cs1 [Compound 168],<0.626,180,,,,,0,0,,,
"O=C(NCc1cccc(Cl)c1)Nc1nc(-c2ccc(Br)cc2)cs1 [Compound 175, 1-[4-(4-Bromo-phenyl)-thiazol-2-yl]-3-(3-chloro-benzyl)-urea]",,,0,25,5.28,1390,,,,,
